Assay results reported in patent US20010036949A1, “Pharmaceutical composition and method of treatment of diseases of cognitive dysfunction in a mammal” (priority 2000, published 2001).

Experiments:
human m4 receptor = target: T1, human m4 receptor (Homo sapiens, UniProt P08173); test: Inhibition of forskolin-stimulated cAMP accumulation, m4 receptor; format: cell-based; settings: standard agonist, typical value, 5 uM forskolin
T1 construct: host or cells: CHO-K1
T1 sequence (P08173 1-479): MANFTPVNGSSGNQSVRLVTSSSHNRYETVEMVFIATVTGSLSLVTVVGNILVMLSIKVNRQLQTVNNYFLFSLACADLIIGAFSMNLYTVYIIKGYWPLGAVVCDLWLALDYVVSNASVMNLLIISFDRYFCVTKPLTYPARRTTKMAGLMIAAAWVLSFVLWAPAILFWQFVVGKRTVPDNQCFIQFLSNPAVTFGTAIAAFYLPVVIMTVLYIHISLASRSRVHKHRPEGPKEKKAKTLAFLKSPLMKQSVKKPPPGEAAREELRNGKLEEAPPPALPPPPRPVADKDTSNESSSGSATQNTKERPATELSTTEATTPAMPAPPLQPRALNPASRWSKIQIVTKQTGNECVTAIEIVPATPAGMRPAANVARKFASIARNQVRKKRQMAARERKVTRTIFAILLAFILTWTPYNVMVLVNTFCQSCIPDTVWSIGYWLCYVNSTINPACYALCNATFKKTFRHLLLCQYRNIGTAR
Protocol: (§1) The activity of muscarinic receptors can be determined according to the following protocol. Chinese hamster ovary cells (CHO-K1) stably transformed to express human m1-m5_receptors can be obtained from Dr. Tom Bonner (Laboratory of Cell Biology, National Institute of Mental Health, Building 36, Rm 3A-17, National Institute of Health, Bethesda, Md. 20892). Cells are maintained in Dulbecco's Modified Eagle Medium containing 10% fetal calf serum and harvested at confluence by brief incubation in Ca++/Mg++_free phosphate-buffered saline containing 4 mM EDTA.
(§2) Functional responses at m2 and m4 receptors can be determined by measuring inhibition of forskolin-stimulated cAMP accumulation. Harvested cells are preincubated (15 minutes at 20-22° C.) with 3-isobutyl-1-methyl-xanthine ([…]; 0.2 mM) and then incubated (10 minutes at 20-22° C.) in a HEPES-buffered Krebs solution with test compounds in the presence of 5 uM forskolin. The reaction is stopped by the addition of 10N acetic acid and the CAMP content of dried supernatants is determined using a scintillation proximity assay (Amersham).

human m2 receptor = target: T2, human m2 receptor (Homo sapiens, UniProt P08172); test: Inhibition of forskolin-stimulated cAMP accumulation, m2 receptor; format: cell-based; settings: standard agonist, typical value, 5 uM forskolin
T2 sequence (P08172 1-466): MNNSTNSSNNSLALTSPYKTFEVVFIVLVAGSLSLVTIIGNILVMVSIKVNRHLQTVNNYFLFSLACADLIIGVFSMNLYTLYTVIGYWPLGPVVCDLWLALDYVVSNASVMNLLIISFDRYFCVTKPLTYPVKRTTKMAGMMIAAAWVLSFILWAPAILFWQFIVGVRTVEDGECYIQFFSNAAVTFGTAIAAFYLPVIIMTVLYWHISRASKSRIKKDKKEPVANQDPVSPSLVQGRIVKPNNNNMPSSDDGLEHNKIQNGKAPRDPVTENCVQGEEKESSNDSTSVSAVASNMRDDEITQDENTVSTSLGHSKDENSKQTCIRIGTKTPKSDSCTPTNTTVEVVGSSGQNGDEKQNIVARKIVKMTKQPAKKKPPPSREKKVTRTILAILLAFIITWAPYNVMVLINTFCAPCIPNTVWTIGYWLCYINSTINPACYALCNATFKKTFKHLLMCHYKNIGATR
Protocol: as §1, §2

C[N+](C)(C)CCOC(N)=O [Carbachol]
inhibition of the forskolin-stimulated cAMP levels (human m4 receptor): 60-80% | inhibition of the forskolin-stimulated cAMP levels (human m2 receptor): 60-80%
